Molecules are shown by their SMILES. *1 amine or outer side, *2 acyl side, *3 side chain or, on linkers, in order; H or OH if unused. Where a SMILES comes first, the peptide text is derived from it. Bridges are numbered along the chain shown (N, C = ends). [ ]: non-standard residue; d: D form. The star is where a group is joined. Phe(3,5-F2) = N[C@@H](Cc1cc(F)cc(F)c1)C(=O)O; NH(1-Me-indolin-5-yl) = CN1CCc2cc(N*)ccc21; NH(4-OCF3-phenyl) = FC(F)(F)Oc1ccc(N*)cc1; Morpholine(3S-CO) = O=C(O)[C@@H]1COCCN1; Pro(4S-Me) = C[C@@H]1CN[C@H](C(=O)O)C1; NH(4-Cl-2-F-phenyl) = Fc1cc(Cl)ccc1N*; Pro(4R-Me) = C[C@H]1CN[C@H](C(=O)O)C1; Hyp = O=C(O)[C@@H]1C[C@@H](O)CN1; NMeT = CN[C@H](C(=O)O)[C@@H](C)O; Heptenoyl(2E) = CCCC/C=C/C(=O)*; aThr = C[C@H](O)[C@H](N)C(=O)O; Pip = O=C(O)[C@@H]1CCCCN1; X4 = c1cc2c(cc1N*)CCC2; X8 = c1cc2c(cc1N*)CCO2; X6 = Cc1cc(C)cc(N*)c1; CO = O=C([*:1])[*:2]; X7 = CC/C=C/C(=O)*

The target in the first assay is T1, Sa-ClpP (Staphylococcus aureus, UniProt Q2G036).
T1 construct: made in house; host or cells: E. coli BL21(DE3)
T1 sequence (Q2G036 1-195): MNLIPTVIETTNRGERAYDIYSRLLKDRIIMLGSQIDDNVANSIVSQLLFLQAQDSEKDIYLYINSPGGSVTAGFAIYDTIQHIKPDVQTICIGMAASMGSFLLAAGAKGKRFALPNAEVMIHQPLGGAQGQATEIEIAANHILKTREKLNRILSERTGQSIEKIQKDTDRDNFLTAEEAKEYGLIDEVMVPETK
Put plainly: Sa-ClpP casein-BODIPY ClpP activation assay, method variant not marked in Table 5. In kind it is biochemical, S. aureus.
Details: not given
The procedure:
The compounds were assayed in a casein digestion assay in order to determine their effect on ClpP activation. Briefly, the assay was carried out using S. aureus ClpP (“Sa-ClpP”) overexpressed in E. coli BL21(DE3) and purified in a two-step process. Purity of the protein was assessed through SDS PAGE analysis. EC50 evaluations were conducted in triplicate in a 20 μl assay format using a method adapted from Maurizi et al. (Methods Enzymol. (1994) 244:314-331). Each well contained 10 μM saClpP, 25 μg/ml BODIPY FL casein (Invitrogen Corporation, San Diego, Calif.), and test compound in concentrations ranging between 0-1000 μM in assay buffer (50 mM Tris pH 8, 200 mM KCl, and 1 mM TCEP). The reaction took place at 37° C. Fluorescence (excitation 485 nm; emission 528 nm) was measured in five minute intervals over a 45 min period using a BioTek HT fluorescence microplate reader (BioTek Instruments, Inc., Winooski, Vt.). Velocity of each reaction was calculated and data was fit to a dose response curve using GraphPad Prism® software (GraphPad Software, Inc., La Jolla, Calif.). EC50 is the effective concentration of compound which causes 50% activation of S. aureus ClpP in the foregoing BODIPY FL casein assay.
Alternatively, the assay was carried out using EnzCheck Protease Assay (Molecular Probes, Catalog # E6638). The assay was performed in black 384 well, flat bottom, low volume plates (Greiner Bio-One, Monroe, N.C., catalog #784076). 10 μL of Tris*HCl buffer, pH 8.0 with 0.01% Triton X-100 was pipetted into each well using a Well-Mate (Thermo Scientific, Waltham, Mass.). 0.4 μL test compounds or controls (2% DMSO v/v) were added to each well using a Biomek FX liquid handling robot (Beckman Coulter, Indianapolis Ind.). After addition of test compounds and controls, 10 μL of master mix containing 2 μM Sa-ClpP and 2 μM substrate (Bodipy-FL labeled casein) in Tris*HCl buffer, pH 8.0 with 0.01% (v/v) Triton X-100, was pipetted into each well. All assays were performed in triplicate, under linear velocity conditions. Increase in fluorescent signal following activation of Sa-ClpP by test compounds and controls was measured over time period of 30 mins using filters with excitation at 485±15 nm and emission at 520±25 nm on a PHERAstar FS Multilabel reader (BMG, Cary, N.C.). […] Data analysis was done by measuring rate of casein degradation over time (slopes). Computed degradation rates (slopes) were normalized to positive (ADEP4) or negative (DMSO) controls. Using nonlinear regression curve fitting EC50 values and % activation were determined using the equation “log [agonist] vs. Response-variable slope (four parameters)-symmetrical” in the program Prism 6 (GraphPad Software, La Jolla, Calif. USA, www.graphpad.com).
Substituted urea depsipetide analogs were synthesized as described above. The EC50 for ClpP activation was determined in the Sa-ClpP in casein-BODIPY assay as described above. The IC50 for ADEP displacement was determined in the ADEP displacement fluorescent polarization assay as described above; and the IC50 for growth inhibition was determined in the Vero cell cytotoxicity assay as described above. The compound number corresponds to the compound numbers used in Tables 1-4 and the experimental examples described above.
By EC50 is commonly meant the concentration needed to bring the measured effect to its halfway point. On to `Cc1cc(C)cc(NC(=O)N[C@@H](Cc2cc(F)cc(F)c2)C(=O)N[C@@H]2C(=O)N3CCC[C@H]3C(=O)N3CCCC[C@H]3C(=O)N[C@@H](C)C(=O)N3C[C@H](C)C[C@H]3C(=O)O[C@H]2C)c1` [Compound 304, (S)-3-(3,5-difluorophenyl)-2-(3-(3,5-dimethylphenyl)ureido)-N-((2R,6S,8aS,14aS,20S,21S,23aS)-2,6,21-trimethyl-5,8,14,19,23-pentaoxooctadecahydro-1H,5H,14H,19H-pyrido[2,1-i]dipyrrolo[2,1-c:2′,1′-l][1]oxa[4,7,10,13]tetraazacyclo-hexadecin-20-yl)propanamide] ({X6-CO}-[Phe(3,5-F2)][aThr]P[Pip]A[Pro(4R-Me)]; ester 2-C), for which the EC50 was 380 ± 10 nM. Still for that read-out and setting: for `C[C@@H]1C[C@H]2C(=O)O[C@@H](C)[C@H](NC(=O)[C@H](Cc3cc(F)cc(F)c3)NC(=O)Nc3ccc(Cl)cc3F)C(=O)N3CCC[C@H]3C(=O)N3CCCC[C@H]3C(=O)N[C@@H](C)C(=O)N2C1` [Compound 307, (S)-2-(3-(4-chloro-2-fluorophenyl)ureido)-3-(3,5-difluorophenyl)-N-((2R,6S,8aS,14aS,20S,21S,23aS)-2,6,21-trimethyl-5,8,14,19,23-pentaoxooctadecahydro-1H,5H,14H,19H-pyrido[2,1-i]dipyrrolo[2,1-c:2′,1′-l][1]oxa[4,7,10,13]tetraazacyclo-hexadecin-20-yl)propanamide] ({NH(4-Cl-2-F-phenyl)-CO}-[Phe(3,5-F2)][aThr]P[Pip]A[Pro(4R-Me)]; ester 2-C) the value was 440 ± 30 nM.

The same assay, now with this note: values without ** or † mark; assay variant not stated; read-out: ClpP Activation EC50.
Regarding `C[C@H]1C[C@H]2C(=O)O[C@@H](C)[C@H](NC(=O)[C@H](Cc3cc(F)cc(F)c3)NC(=O)Nc3ccc(OC(F)(F)F)cc3)C(=O)N3CCC[C@H]3C(=O)N3CCOC[C@H]3C(=O)N[C@@H](C)C(=O)N2C1` [Compound 201, (S)-3-(3,5-difluorophenyl)-2-(3-(4-(trifluoromethoxy)phenyl)ureido)-N-((6aS,12S,13S,15aS,17S,21S,23aS)-13,17,21-trimethyl-6,11,15,20,23-pentaoxooctadecahydro-6H,11H,15H-[1,4]oxazino[3,4-i]dipyrrolo[2,1-c:2′,1′-l][1]oxa[4,7,10,13]tetraazacyclohexadecin-12-yl)propanamide] ({NH(4-OCF3-phenyl)-CO}-[Phe(3,5-F2)][aThr]P[Morpholine(3S-CO)]A[Pro(4S-Me)]; ester 2-C), the EC50 is 330 ± 10 nM. In the case of `CC/C=C/C(=O)N[C@@H](Cc1cc(F)cc(F)c1)C(=O)N[C@@H]1C(=O)N2C[C@H](O)C[C@H]2C(=O)N2CCCC[C@H]2C(=O)N[C@@H](C)C(=O)N2C[C@H](C)C[C@H]2C(=O)O[C@H]1C` [Compound 300] (X7-[Phe(3,5-F2)][aThr][Hyp][Pip]A[Pro(4R-Me)]; ester 2-C), the half-maximal effective concentration (EC50) came to 440 ± 30 nM. For the molecule `CCCC/C=C/C(=O)N[C@@H](Cc1cc(F)cc(F)c1)C(=O)N[C@@H]1C(=O)N2C[C@H](O)C[C@H]2C(=O)N2CCCC[C@H]2C(=O)N[C@@H](C)C(=O)N2C[C@H](C)C[C@H]2C(=O)O[C@H]1C` [Compound 301, (E)-N—((S)-3-(3,5-difluorophenyl)-1-(((2R,6S,8aS,14aS,16R,20S,21S,23aS)-16-hydroxy-2,6,21-trimethyl-5,8,14,19,23-pentaoxooctadecahydro-1H,5H,14H,19H-pyrido[2,1-i]dipyrrolo[2,1-c:2′,1′-l][1]oxa[4,7,10,13]tetraazacyclohexadecin-20-yl)amino)-1-oxopropan-2-yl)hept-2-enamide] ({Heptenoyl(2E)}-[Phe(3,5-F2)][aThr][Hyp][Pip]A[Pro(4R-Me)]; ester 2-C), the concentration for a half-maximal effect (EC50) amounted to 420 ± 10 nM. For the molecule `C[C@@H]1C[C@H]2C(=O)O[C@@H](C)[C@H](NC(=O)[C@H](Cc3cc(F)cc(F)c3)NC(=O)Nc3ccc4c(c3)CCC4)C(=O)N3CCC[C@H]3C(=O)N3CCCC[C@H]3C(=O)N[C@@H](C)C(=O)N2C1` [Compound 302, (S)-3-(3,5-difluorophenyl)-2-(3-(2,3-dihydro-1H-INDEN-5-yl)ureido)-N-((2R,6S,8aS,14aS,20S,21S,23aS)-2,6,21-trimethyl-5,8,14,19,23-pentaoxooctadecahydro-1H,5H,14H,19H-pyrido[2,1-i]dipyrrolo[2,1-c:2′,1′-l][1]oxa[4,7,10,13]tetraazacyclohexadecin-20-yl)propanamide] ({X4-CO}-[Phe(3,5-F2)][aThr]P[Pip]A[Pro(4R-Me)]; ester 2-C), the EC50 amounted to 480 ± 10 nM. For the molecule `C[C@@H]1C[C@H]2C(=O)O[C@@H](C)[C@H](NC(=O)[C@H](Cc3cc(F)cc(F)c3)NC(=O)Nc3ccc4c(c3)CCO4)C(=O)N3CCC[C@H]3C(=O)N3CCCC[C@H]3C(=O)N[C@@H](C)C(=O)N2C1` [Compound 305, (S)-3-(3,5-difluorophenyl)-2-(3-(2,3-dihydrobenzofuran-5-yl)ureido)-N-((2R,6S,8aS,14aS,20S,21S,23aS)-2,6,21-trimethyl-5,8,14,19,23-pentaoxooctadecahydro-1H,5H,14H,19H-pyrido[2,1-i]dipyrrolo[2,1-c:2′,1′-l][1]oxa[4,7,10,13]tetraazacyclo-hexadecin-20-yl)propanamide] ({X8-CO}-[Phe(3,5-F2)][aThr]P[Pip]A[Pro(4R-Me)]; ester 2-C), the 50% effective concentration (EC50) was determined as 480 ± 20 nM. Take `CCCC/C=C/C(=O)N[C@@H](Cc1cc(F)cc(F)c1)C(=O)N[C@@H]1C(=O)N2CCC[C@H]2C(=O)N(C)[C@@H]([C@@H](C)O)C(=O)N[C@@H](C)C(=O)N2C[C@H](C)C[C@H]2C(=O)O[C@H]1C` [Compound 308, (E)-N—((S)-3-(3,5-difluorophenyl)-1-(((2R,6S,9S,11aS,17S,18S,20aS)-9-((R)-1-hydroxyethyl)-2,6,10,18-tetramethyl-5,8,11,16,20-pentaoxohexadecahydro-1H,5H,16H-dipyrrolo[2,1-c:2′,1′-l][1]oxa[4,7,10,13]tetraazacyclohexadecin-17-yl)amino)-1-oxopropan-2-yl)hept-2-enamide] ({Heptenoyl(2E)}-[Phe(3,5-F2)][aThr]P[NMeT]A[Pro(4R-Me)]; ester 2-C): the EC50 stood at 280 ± 20 nM. Still for that read-out and setting: then `CCCC/C=C/C(=O)N[C@@H](Cc1cc(F)cc(F)c1)C(=O)N[C@@H]1C(=O)N2C[C@H](O)C[C@H]2C(=O)N2CCOC[C@H]2C(=O)N[C@@H](C)C(=O)N2C[C@H](C)C[C@H]2C(=O)O[C@H]1C` [Compound 309, (E)-N—((S)-3-(3,5-difluorophenyl)-1-(((6aS,8R,12S,13S,15aS,17R,21S,23aS)-8-hydroxy-13,17,21-trimethyl-6,11,15,20,23-pentaoxooctadecahydro-6H,11H,15H-[1,4]oxazino[3,4-i]dipyrrolo[2,1-c:2′,1′-l][1]oxa[4,7,10,13]tetraazacyclohexadecin-12-yl)amino)-1-oxopropan-2-yl)hept-2-enamide] ({Heptenoyl(2E)}-[Phe(3,5-F2)][aThr][Hyp][Morpholine(3S-CO)]A[Pro(4R-Me)]; ester 2-C), with 480 ± 20 nM. For the molecule `C[C@@H]1C[C@H]2C(=O)O[C@@H](C)[C@H](NC(=O)[C@H](Cc3cc(F)cc(F)c3)NC(=O)Nc3ccc4c(c3)CCN4C)C(=O)N3CCC[C@H]3C(=O)N3CCCC[C@H]3C(=O)N[C@@H](C)C(=O)N2C1` [Compound 310, (S)-3-(3,5-difluorophenyl)-2-(3-(1-methylindolin-5-yl)ureido)-N-((2R,6S,8aS,14aS,20S,21S,23aS)-2,6,21-trimethyl-5,8,14,19,23-pentaoxooctadecahydro-1H,5H,14H,19H-pyrido[2,1-i]dipyrrolo[2,1-c:2′,1′-l][1]oxa[4,7,10,13]tetraazacyclo-hexadecin-20-yl)propanamide] ({NH(1-Me-indolin-5-yl)-CO}-[Phe(3,5-F2)][aThr]P[Pip]A[Pro(4R-Me)]; ester 2-C), the EC50 was 440 ± 30 nM.

For the origin of these results see patent publication US10457707B2, “Substituted urea depsipeptide analogs as activators of the CLPP endopeptidase” (priority 2015, dated 2019).
